Molecular target: Mitogen-activated protein kinase 1 (Mus musculus, UniProt P63085)
Test: TdF (Temperature Dependence Fluorescence) Assay: The SAR (Structure Activity Relationship) for ERK ligands covered by this invention was interrogated using the TdF (Temperature Dependence Fluorescence) assay or best known as thermal shift assay. (M. W. Pantoliano, et al., "High-density miniaturized thermal shift assays as a general strategy for drug discovery," J. Biomol. Screen 6 (2001) 429-440) The TdF assay was mainly conducted in the 96-well based CHROMO-4 real time fluorescence plate reader (BioRad). The Sypro Orange (Sigma-Aldrich), environmentally sensitive fluorescence dye, was used to monitor the protein folding-unfolding transition. Protein-ligand binding was gauged by the change (or shift) in the unfolding transition temperature (ΔTm) acquired at protein alone with respect to protein in the presence of ligand of interest.Compound of interest was first prepared in DMSO stock (typical concentration: 10 mM). […] Final percentage of DMSO resided in the sample was 2%. The sample plate was heated from 30° C. to 90° C. with thermal ramping rate of 1° C./min.

Sequence of Mitogen-activated protein kinase 1 (P63085 whole entry): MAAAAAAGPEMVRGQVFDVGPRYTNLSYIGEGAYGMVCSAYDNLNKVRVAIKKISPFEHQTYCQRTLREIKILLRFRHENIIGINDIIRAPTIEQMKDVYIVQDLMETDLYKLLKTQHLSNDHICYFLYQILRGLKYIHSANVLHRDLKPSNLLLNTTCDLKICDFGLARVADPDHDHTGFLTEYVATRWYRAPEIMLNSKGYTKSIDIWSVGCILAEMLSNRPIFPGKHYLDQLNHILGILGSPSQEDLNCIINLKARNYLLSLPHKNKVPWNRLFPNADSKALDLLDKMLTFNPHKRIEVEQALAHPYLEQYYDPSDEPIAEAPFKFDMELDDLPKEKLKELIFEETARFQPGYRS

Q: O=C(N[C@H]1CNC[C@@H]1c1ccccc1)N1CCc2[nH]nc(-c3ccncc3)c2C1 (racemic) was tested. Which Kd did it give?
A: 6 nM

— ChEMBL document CHEMBL3886489, “Fused pyrazole derivatives as novel ERK inhibitors” (2016)
